Test results published in PubChem BioAssay (NCI).
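Following 48 hours of exposure in 96-well plates, responses at five concentrations were used to interpolate endpoints linearly. TGI marks complete inhibition of growth.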

Key:
Experiment in all cases: NCI anticancer screen, dose series, 48 h
786-0 renal = tested on: 786-0 renal
A549 NSCLC = tested on: A549 NSCLC
ACHN renal = tested on: ACHN renal
BT-549 breast = tested on: BT-549 breast
CAKI-1 renal = tested on: CAKI-1 renal
CCRF-CEM leukemia = tested on: CCRF-CEM leukemia
COLO 205 colon = tested on: COLO 205 colon
DU-145 prostate = tested on: DU-145 prostate
EKVX NSCLC = tested on: EKVX NSCLC
HCT-116 colon = tested on: HCT-116 colon
HCT-15 colon = tested on: HCT-15 colon
HL-60(TB) leukemia = tested on: HL-60(TB) leukemia
HOP-62 NSCLC = tested on: HOP-62 NSCLC
HOP-92 NSCLC = tested on: HOP-92 NSCLC
HS 578T breast = tested on: HS 578T breast
HT29 colon = tested on: HT29 colon
IGROV1 ovarian = tested on: IGROV1 ovarian
K-562 leukemia = tested on: K-562 leukemia
KM12 colon = tested on: KM12 colon
LOX IMVI melanoma = tested on: LOX IMVI melanoma
MALME-3M melanoma = tested on: MALME-3M melanoma
MCF7 breast = tested on: MCF7 breast
MDA-MB-231 breast = tested on: MDA-MB-231 breast
MDA-MB-435 = tested on: MDA-MB-435
MDA-N = tested on: MDA-N
MOLT-4 leukemia = tested on: MOLT-4 leukemia
NCI-H226 lung = tested on: NCI-H226 lung
NCI-H23 lung = tested on: NCI-H23 lung
NCI-H460 lung = tested on: NCI-H460 lung
NCI-H522 lung = tested on: NCI-H522 lung
NCI/ADR-RES ovarian = tested on: NCI/ADR-RES ovarian
OVCAR-3 ovarian = tested on: OVCAR-3 ovarian
OVCAR-4 ovarian = tested on: OVCAR-4 ovarian
OVCAR-5 ovarian = tested on: OVCAR-5 ovarian
OVCAR-8 ovarian = tested on: OVCAR-8 ovarian
PC-3 prostate = tested on: PC-3 prostate
RPMI-8226 leukemia = tested on: RPMI-8226 leukemia
RXF 393 renal = tested on: RXF 393 renal
SF-268 CNS = tested on: SF-268 CNS
SF-295 CNS = tested on: SF-295 CNS
SF-539 CNS = tested on: SF-539 CNS
SK-MEL-2 melanoma = tested on: SK-MEL-2 melanoma
SK-MEL-5 melanoma = tested on: SK-MEL-5 melanoma
SK-OV-3 ovarian = tested on: SK-OV-3 ovarian
SN12C renal = tested on: SN12C renal
SNB-19 CNS = tested on: SNB-19 CNS
SNB-75 CNS = tested on: SNB-75 CNS
SR leukemia = tested on: SR leukemia
SW-620 colon = tested on: SW-620 colon
T-47D breast = tested on: T-47D breast
TK-10 renal = tested on: TK-10 renal
U251 CNS = tested on: U251 CNS
UACC-257 melanoma = tested on: UACC-257 melanoma
UACC-62 melanoma = tested on: UACC-62 melanoma
UO-31 renal = tested on: UO-31 renal
HCC-2998 colon = tested on: HCC-2998 colon
M14 melanoma = tested on: M14 melanoma
SK-MEL-28 melanoma = tested on: SK-MEL-28 melanoma
A498 renal = tested on: A498 renal

Measured: TGI

COc1ccc(NC(=O)CC(=O)NN)cc1
not listed: HCC-2998 colon | M14 melanoma | SK-MEL-28 melanoma | A498 renal
> 100 µM: all other assays above

CN(C)c1ccc(/C=C(\C#N)c2nc(-c3cc4ccccc4oc3=O)cs2)cc1
24.3 µM: UACC-62 melanoma
21 µM: 786-0 renal
16.8 µM: HOP-92 NSCLC
4.21 µM: SNB-75 CNS
8.16 µM: BT-549 breast
44.5 µM: U251 CNS
15.6 µM: HOP-62 NSCLC
40.9 µM: MDA-MB-231 breast
26.7 µM: SF-539 CNS
31.6 µM: NCI-H522 lung
25.1 µM: SF-295 CNS
21.8 µM: TK-10 renal
38.6 µM: SK-MEL-2 melanoma
not listed: NCI-H23 lung | OVCAR-3 ovarian | A498 renal
> 50 µM: all other assays above

O=C(O)CCn1cnc2c(=S)nc[nH]c21
not listed: HOP-92 NSCLC
> 100 µM: all other assays above
